Test system: CD8+ T cells of HLA-A02:01-positive human donors
Assay type: cell-based
Settings: not given

Row | Sequence | No. Donors with pMHC specific T tells
1 | KLDDKDPNF | 2
2 | YLGTGPEAGL | 2

Same assay, conditions: PBMCs from three HLA-A02:01-positive human donors; pMHC multimer positive CD8+ T cells

Row | Sequence | No. Donors with pMHC specific T tells
3 | FLLPSLATV | 2
4 | FLFLTWICL | 2
5 | FGDDTVIEV | 3
6 | LLLDRLNQL | 1
7 | KLNDLCFTNV | 2
8 | GLTVLPPLL | 1

Test system: peripheral CD8+ T cells
Set-up: species or system human
Settings: in vivo

Row | Sequence | multimer+ of CD8+
9 | QYIKWPWYI | 1.27
10 | QPTESIVRF | 0.17
11 | YLQPRTFLL | 3.09

Test system: MHC (HLA-I and HLA-II alleles)
Sequence (P61769 21-119): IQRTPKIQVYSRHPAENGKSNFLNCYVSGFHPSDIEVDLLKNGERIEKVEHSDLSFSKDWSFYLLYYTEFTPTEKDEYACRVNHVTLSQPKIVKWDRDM
Set-up: key: +: previously assayed and confirmed as HLA-A02:01 binders in ViPR
Settings: cited from earlier work

Row | Sequence | Confirmed in VIPR
12 | ILLNKHIDA | +
13 | LLLDRLNQL | +
14 | NLNESLIDL | +

Reference: patent US20260207734A1 (priority 2021, published 2026)
